Assay results from patent publication US6365550B1, “Flufenacet-based herbicidal compositions” (Bayer Aktiengesellschaft, priority 1999, dated 2002).

Experiments:
Assay in all cases: Post-emergence test/greenhouse
Type in all cases: in vivo
Details in all cases: scored after three weeks vs untreated control
Alopercurus myosuroides = tested on: Alopercurus myosuroides
Protocol: (§1) Commercial formulations of the active compounds involved were used. The active compound concentrations required for the experiments were prepared by dilution with water.
(§2) Test plants which have a height of 5 to 15 cm are sprayed with the active compound preparation in such a way that the amounts of active compound desired in each case are applied per unit area. The concentration of the spray mixture is chosen in such a way that the amounts of active compound desired in each case are applied in 500 l water/ha.
(§3) After three weeks, the degree of damage to the plants is scored in % damage in comparison with the development of the untreated control.
(§4) The figures denote the following:
(§5) 0%=no action (like untreated control)

Apera spica-venti = tested on: Apera spica-venti
Protocol: as §1, §2, §3, §4, §5

Chenopodium album = tested on: Chenopodium album
Protocol: as §1, §2, §3, §4, §5

Echinochloa crus-galli = tested on: Echinochloa crus-galli
Protocol: as §1, §2, §3, §4, §5

Compound | % damage Alopercurus myosuroides (Alopercurus myosuroides; application rate 60 g a.i./ha) [%] | % damage Apera spica-venti (Apera spica-venti; application rate 60 g a.i./ha) [%] | % damage Chenopodium album (Chenopodium album; application rate 60 g a.i./ha) [%] | % damage Echinochloa crus-galli (Echinochloa crus-galli; application rate 60 g a.i./ha) [%] | % damage Alopercurus myosuroides (Alopercurus myosuroides; application rate 30 g a.i./ha) [%] | % damage Apera spica-venti (Apera spica-venti; application rate 30 g a.i./ha) [%] | % damage Chenopodium album (Chenopodium album; application rate 30 g a.i./ha) [%] | % damage Echinochloa crus-galli (Echinochloa crus-galli; application rate 30 g a.i./ha) [%]
CC(C)N(C(=O)COc1nnc(C(F)(F)F)s1)c1ccc(F)cc1 [(I), N-(4fluoro-phenyl)-N-(i-propyl)-2-(5-trifluoromethyl-1,3,4-thiadiazol-2-yl-oxy)-acetamide] | 60 | 60 | 0 | 60 |  |  |  | 
CC(C)N.O=C(O)CNCP(=O)(O)O [(II-1), N-phosphonomethyl-glycine i-propyl-ammonium salt] |  |  |  |  | 0 | 0 | 0 | 0
